Measurements as given in patent US20060014812A1, “Use of estrogen related receptor-modulating aryl ethers” (priority 2004, published 2006).

What was measured:
ERR-α = target: T1, ERR-α (Homo sapiens, UniProt P11474); test: 2-Hybrid cell based luciferase reporter assay (pBIND-Gal4-ERR-α / pACT-SRC2) in HEK293E cells; conditions: 24 hours compound treatment, firefly luciferase normalized to Renilla, average from three independent experiments
T1 construct: expressed in transfected cells; host or cells: HEK293E
T1 sequence (P11474 1-423): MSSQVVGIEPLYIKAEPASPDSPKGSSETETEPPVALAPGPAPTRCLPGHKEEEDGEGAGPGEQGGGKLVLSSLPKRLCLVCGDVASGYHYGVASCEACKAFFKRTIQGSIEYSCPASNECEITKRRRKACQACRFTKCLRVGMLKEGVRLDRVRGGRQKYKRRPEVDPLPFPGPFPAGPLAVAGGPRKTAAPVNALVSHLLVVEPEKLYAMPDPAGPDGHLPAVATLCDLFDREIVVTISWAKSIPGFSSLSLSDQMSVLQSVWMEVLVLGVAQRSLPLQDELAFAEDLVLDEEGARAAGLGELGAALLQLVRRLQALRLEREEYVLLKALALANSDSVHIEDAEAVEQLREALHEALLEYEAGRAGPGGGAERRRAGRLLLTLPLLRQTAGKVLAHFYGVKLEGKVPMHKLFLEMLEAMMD
Procedure: A cell based reporter assay was also used to determine the functional response of the ERR-α hits. Transfections were performed in HEK293E cells that were maintained in DMEM supplemented in glutamine and 10% FBS. Co-transfections of 4 μg of a luciferase reporter plasmid and 4 μg of each pBIND-Gal4-ERR-α and pACT-SRC2 plasmids per T-75 flask were done using Lipofectamine as per manufacturers instructions. Twenty-four hours post-transfection, the cells were seeded in 96-well plates at density of 50,000 cells per well in assay media (DMEM phenol free, 5% charcoal stripped FBS). The cells were allowed to adhere to the bottom of the wells (approximately 5 hours post-seeding) and the compounds were dosed and the final concentration of DMSO was kept below 0.3%. After 24 hours of compound treatment cells were lysed and treated with the Promega Dual-Glo system. Firefly Luciferase activity was read using a luminescence plate reader, and data were normalized against Renilla luciferase activity. Data were fitted using subroutines available from GraphPad. The reported IC50 values shown in the table below are the average from three independent experiments for the compounds tested.

[1] = target: T2, ligand binding domain of ERR-α (aa 183-424) (Homo sapiens, UniProt P11474); test: ThermoFluor thermal-shift binding affinity screen against ERR-α ligand binding domain; conditions: 100 μM test compound, 0.1 mg/mL ERR-α, pH 7.6, Kd estimated from melting temperature shift at reference temperature, read-out: TF Kd
T2 construct: His tag (N); thrombin cleavage site (N); made in house; host or cells: E. coli BL21(DE3+)
T2 sequence (P11474 183-423 limits assumed): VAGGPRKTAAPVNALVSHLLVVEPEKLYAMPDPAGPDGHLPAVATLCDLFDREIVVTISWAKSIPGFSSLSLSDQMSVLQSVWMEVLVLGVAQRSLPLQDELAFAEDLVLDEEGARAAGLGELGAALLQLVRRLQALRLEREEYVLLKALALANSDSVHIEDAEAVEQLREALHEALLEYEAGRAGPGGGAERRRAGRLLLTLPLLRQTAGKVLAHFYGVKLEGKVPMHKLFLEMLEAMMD
Procedure: The ligand binding domain of ERR-α (aa 183-424) was subcloned in frame with the N-terminal His tag and the cleavable thrombin site in pET28. The protein was expressed in BL21(DE3^+) following induction with 100 μM IPTG at 16° C. Cells were harvested after 16 hours (h) of induction and lysed in 20 mM Tris pH 7.5, 500 mM NaCl, 5 mM imidazole, 5% glycerol, protease inhibitor cocktail (-EDTA) and 2 mM β-ME. Insoluble material was removed by centrifugation at 40,000×g for 1 hr. Clarified homogenate was applied on a Ni-NTA column and after applying an imidazole gradient the protein was eluted. The protein was further purified on size exclusion chromatography to an apparent homogeneity of 95% as judged by SDS-PAGE chromatography.
Binding affinities of compounds were determined by screening against the ligand binding domain of ERR-α using ThermoFluor® technology (U.S. Pat. No. 6,020,141 and U.S. Pat. No. 6,036,920, and Journal of Biomolecular Screening 6 (6), […], pgs 429-440). Assay plates were prepared by dispensing 2 μL of a protein-dye solution and 2 μL of the test compound in a 384-well plate. The conditions used in the screen were: 0.1 mg/mL ERR-α, 25 mM Na-phosphate buffer at pH 7.6, 200 mM NaCl, 10% glycerol, 16 μM ANS, 2% DMSO and the final concentration of test compound was 100 μM. Finally 1 μL of mineral oil was dispensed on top to prevent evaporation during the high throughput screen (HTS). ThermoFluor® is an HTS assay that measures protein unfolding based on fluorescence detection of the denatured form of the protein. The reporter for the protein unfolding event is the environmentally sensitive dye ANS that is incorporated in the screening buffer. During a typical experiment the 384-well plate is heated at a ramping rate of 1° C./min and the thermal unfolding of the protein is monitored at 1° C. intervals by measuring fluorescence changes detected through a CCD camera. Captured images are integrated and a melting curve is generated that relates fluorescence to fraction of unfolded protein as a function of temperature. For the ERR-α screen, data were collected from 30 to 80° C. at 1° C. intervals and the protein melted under the screening conditions with a characteristic melting temperature, Tm, of 52.1° C. Hits were identified from the screen by measuring an increase in the melting temperature of the protein.
In order to estimate binding affinities, it was taken into account that the oligomeric state of ERR-α, which is a dimer (N2), and that of a single ligand (Lf) can interact per monomer subunit with equal affinity. The melting curve for such a system is described by the following three equilibria: [formula] The first equilibrium describes the denaturation of ERR-α dimers; the second equilibrium describes the dissociation of the first ligand from the single ligand occupied ERR-α dimers (N2L); and the third equilibrium describes the dissociation of the second ligand from the fully occupied ERR-α dimers (N2L2).
Following the derivations of Brandts and Lin (Biochemistry, 29, 6967, 1990) the dissociation constants for the ligands (Kd1^t^m) can be determined at T=Tm for any ligand concentration Lt by solving numerically the conservation of mass equations: [formula] and Ku is in the unfolding equilibrium constant for ERR-α dimers that is calculated from the melting curve of the protein in the absence of ligand as described by Pantoliano et al. (J. Biomolecular Screening, 6, 429, 2001) and Bowie & Sauer (Biochemistry, 28, 7139, 1989).
To compare dissociation constants at a common reference temperature, Tref, the following equation was used: [formula] where • Kd^ref=is the dissociation constant of the ligand at a reference temperature Tref • ΔHb^ref=is the binding enthalpy of the ligand to the protein at a reference temperature Tref. […]

Row | IC50 (ERR-α) [µM] | Kd [1] [µM] | Structure (SMILES)
1 | 7.78 | 7.78 | N#C/C(=C\c1ccc(Oc2ccc(C(F)(F)F)cc2[N+](=O)[O-])cc1)c1nn(-c2ccccc2)c(N)c1C#N [Example 2, 5-Amino-3-{1-cyano-2-[4-(2-nitro-4-trifluoromethyl-phenoxy)-phenyl]-vinyl}-1-phenyl-1H-pyrazole-4-carbonitrile]
2 | 0.14 | 0.473 | COc1cc(/C=C2\SC(N)=NC2=O)ccc1Oc1ccc(C#N)c(C(F)(F)F)c1 [Example 8, 4-[4-(2-Amino-4-oxo-4H-thiazol-5-ylidenemethyl)-2-methoxy-phenoxy]-2-trifluoromethyl-benzonitrile]
